What all share (test): NCI tumour cell line growth inhibition, 48 h
The test system of experiment [1] is CAKI-1.
In experiment [2] the test system is HCC 2998.
Experiment [3] has as its system HCT-116.
For experiment [4], the system named is HCT-15.
Experiment [5] concerns HOP-92.
Experiment [6] has as its system MCF7.
Experiment [7] deals with MDA-MB-435.
Experiment [8] concerns MDA-N.
The subject of experiment [9] is MOLT-4.
Experiment [10] concerns NCI-H460.
Experiment [11] concerns NCI-H522.
Experiment [12] deals with OVCAR-3.
Experiment [13] concerns OVCAR-4.
The test system of experiment [14] is OVCAR-8.
The test system of experiment [15] is RXF 393.
The test system of experiment [16] is SK-OV-3.
Experiment [17] relates to SNB-75.
The test system of experiment [18] is T47D.
For experiment [19], the system named is TK-10.

Molecules are shown by their SMILES.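 These data come from cells grown in 96-well plates and exposed to compound for 48 hours at five concentrations. The concentration for 50% growth inhibition is given as GI50.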 Calls of active or inactive are those of the source. No stated cut-off is given here; in the data, active = GI50 up to about 1.1 µM and inactive = higher. Non-standard residues stand in square brackets, D forms with d. Residues, ends and D or L forms follow the SMILES beside them. *: point of attachment. Ac5c = NC1(C(=O)O)CCCC1; Boc = CC(C)(C)OC(=O)*; tBu = CC(C)(C)*

In the case of `C=CC(C)(C)n1cc(C2=C(O)C(=O)C(c3cn(C(C)(C)C=C)c4ccccc34)=C(O)C2=O)c2ccccc21`, the GI50 in experiment [1] was 2.34 µM (inactive); in experiment [2] it was 2.61 µM (inactive); in experiment [3], 3.27 µM (inactive); in experiment [4], 1.75 µM; in experiment [5], 3.34 µM (inactive); in experiment [6], 3.48 µM (inactive). Also, the GI50 in experiment [7] was 3.79 µM (inactive); in [8], 1.95 µM (inactive); in experiment [9] it was 4.07 µM (inactive); in experiment [10] it was 2.84 µM (inactive); in experiment [11], 2.53 µM (inactive); in [12] it was 1.96 µM (inactive). For the same compound, the GI50 was 1.76 µM (inactive) in experiment [13]; 2.11 µM (inactive) in experiment [14]; 0.435 µM (active) in [15]; 2.67 µM (inactive) in experiment [16]; 2.36 µM (inactive) in experiment [17]; 6.71 µM (inactive) in [18]. For the same compound, in [19], the GI50 is 3.18 µM (inactive).

With `Cc1cccc2c1CC(Cc1ccccc1C(=O)O)C2=O` (stereo not given), the GI50 was > 100 µM (inactive) in experiment [1]; > 100 µM (inactive) in experiment [2]; > 100 µM (inactive) in experiment [3]; more than 100 µM in experiment [4]; > 100 µM (inactive) in [5]; > 100 µM (inactive) in experiment [6]. For the same compound, the GI50 in experiment [7], in [8], in experiment [9], in experiment [10], in experiment [11] and in experiment [12] was > 100 µM (inactive) throughout. Moreover, the GI50 in [13], in [14], in experiment [15], in experiment [16], in experiment [17] and in experiment [18] was > 100 µM (inactive) each time. For the same compound, the GI50 in experiment [19] is > 100 µM (inactive).

For `CCOC(=O)c1sc2c(c1OC(=O)c1ccc(Cl)cc1Cl)c(=O)n(-c1ccccc1)c(=S)n2-c1ccccc1`, the GI50 in experiment [1] was 17.9 µM (inactive); in [2], 24.5 µM (inactive); in [3] it was 8.13 µM (inactive); in experiment [4], 5.08 µM; in [5], 3.49 µM (inactive); in [6], 24.5 µM (inactive). Besides, the GI50 is > 51.2 µM (inactive) in experiment [7]; 22 µM (inactive) in experiment [8]; 3.17 µM (inactive) in experiment [9]; 5.24 µM (inactive) in experiment [10]; 4.74 µM (inactive) in experiment [11]; 21 µM (inactive) in experiment [12]. Moreover, the GI50 in experiment [13] was 40.6 µM (inactive); in experiment [14], 6.11 µM (inactive); in experiment [15], > 100 µM (inactive); in experiment [16], 5.42 µM (inactive); in [17], 7.01 µM (inactive); in [18], > 35.5 µM (inactive). Also, in [19], the GI50 is 17 µM (inactive).

Turning to `Cc1ccc([N+](=O)[O-])c2c(NCCNC(=O)Cn3ccnc3[N+](=O)[O-])ccnc12`, the GI50 in [1] is 31.8 µM (inactive); in experiment [2], 39.6 µM (inactive); in experiment [3], 43.7 µM (inactive); in experiment [4] it was more than 100 µM; in [5] it was 26.5 µM (inactive); in experiment [6], 18.9 µM (inactive). Besides, the GI50 in [7] was 94.6 µM (inactive); in [8], 69.5 µM (inactive); in experiment [9], > 100 µM (inactive); in experiment [10], 28.2 µM (inactive); in [11], 15.5 µM (inactive); in [12], 23.2 µM (inactive). Further, the GI50 in experiment [13] was 33.3 µM (inactive); in [14], 31.3 µM (inactive); in experiment [15], 1.42 µM (inactive); in experiment [16], 21.6 µM (inactive); in experiment [17], > 100 µM (inactive); in experiment [18] it was 35.2 µM (inactive). Also, the GI50 in experiment [19] was 88.3 µM (inactive).

Take `CCOC(=O)Cn1nc2ccc(Nc3nc4ccccc4nc3C(=O)OCC)cc2n1`: the GI50 in [1] was > 100 µM (inactive); in experiment [2] it was 83 µM (inactive); in experiment [3], 55 µM (inactive); in [4] it was more than 100 µM; in experiment [5] it was 31.1 µM (inactive); in [6], 76.4 µM (inactive). The GI50 in experiment [7] was > 100 µM (inactive); in experiment [8], > 100 µM (inactive); in experiment [9], > 100 µM (inactive); in experiment [10], > 100 µM (inactive); in [11], 57 µM (inactive); in experiment [12], 63.4 µM (inactive). For the same compound, the GI50 in experiment [13] was 42.8 µM (inactive); in experiment [14] it was 58.2 µM (inactive); in [15], 23.6 µM (inactive); in experiment [16], 49.3 µM (inactive); in [17], 16.8 µM (inactive); in experiment [18], 37.5 µM (inactive). Moreover, the GI50 in experiment [19] was 38.4 µM (inactive).

`C=CCN(c1cc(OC)c2[nH]c(C(=O)OCC)c(C)c2c1[N+](=O)[O-])S(C)(=O)=O`: the GI50 in experiment [1] was 34 µM (inactive); in experiment [2], 45.5 µM (inactive); in [3] it was 18.2 µM (inactive); in [4] it was 25.6 µM; in experiment [5] it was 18.6 µM (inactive); in [6] it was 22.4 µM (inactive). For the same compound, the GI50 in experiment [7] was 24.7 µM (inactive); in experiment [8], 18.1 µM (inactive); in experiment [9] it was 12.6 µM (inactive); in experiment [10], 30.3 µM (inactive); in experiment [11] it was 17.7 µM (inactive); in [12], 23.8 µM (inactive). Moreover, the GI50 is 32.4 µM (inactive) in [13]; 28.6 µM (inactive) in experiment [14]; 7.23 µM (inactive) in experiment [15]; 36.3 µM (inactive) in [16]; 15.2 µM (inactive) in [17]; 15.2 µM (inactive) in [18]. In addition, the GI50 in experiment [19] is 54.1 µM (inactive).

For the compound `O=C(NC1(c2cc3ccccc3s2)CCCCC1)C1CCC1`, the GI50 in experiment [1] was > 100 µM (inactive); in experiment [2] it was > 100 µM (inactive); in experiment [3], > 100 µM (inactive); in [4], more than 100 µM; in [5], > 100 µM (inactive); in experiment [6], > 100 µM (inactive). Besides, the GI50 in [7], in [8], in experiment [9], in experiment [10], in experiment [11] and in experiment [12] was > 100 µM (inactive) throughout. In addition, the GI50 is 97.5 µM (inactive) in experiment [13]; 66.4 µM (inactive) in experiment [14]; > 100 µM (inactive) in experiment [15]; > 100 µM (inactive) in experiment [16]; 46.7 µM (inactive) in [17]; > 100 µM (inactive) in [18]. Besides, in experiment [19], the GI50 was > 100 µM (inactive).

For `O=C1OC(c2ccccc2)=N/C1=C\c1ccc(Br)cc1`, the GI50 was > 100 µM (inactive) in experiment [1]; > 100 µM (inactive) in experiment [2]; > 100 µM (inactive) in experiment [3]; more than 100 µM in experiment [4]; > 100 µM (inactive) in experiment [5]; > 100 µM (inactive) in experiment [6]. Also, the GI50 was > 100 µM (inactive) in [7]; > 100 µM (inactive) in experiment [8]; 94 µM (inactive) in experiment [9]; > 100 µM (inactive) in experiment [10]; > 100 µM (inactive) in [11]; > 100 µM (inactive) in experiment [12]. Further, the GI50 in experiment [13], in experiment [14], in experiment [15], in [16], in experiment [17] and in [18] was > 100 µM (inactive) throughout. Moreover, the GI50 in experiment [19] is > 100 µM (inactive).

As to `CC(OC(C)(C)C)C(NC(=O)C(CCCCNC(=O)OC(C)(C)C)NC(=O)C(Cc1c[nH]c2ccccc12)NC(=O)C(N)Cc1ccccc1)C(=O)NC(Cc1ccccc1)C(=O)NC1(C(=O)O)CCCC1` (stereo not given) (H-FWK(Boc)T(tBu)F[Ac5c]-OH; configuration not given here), the GI50 in experiment [1] is > 100 µM (inactive); in [2], > 100 µM (inactive); in [3] it was > 100 µM (inactive); in [4], more than 100 µM; in experiment [5], > 100 µM (inactive); in [6], > 100 µM (inactive). Further, the GI50 in experiment [7], in experiment [8], in experiment [9], in [10], in [11] and in [12] was > 100 µM (inactive) each time. Also, the GI50 in experiment [13] was > 100 µM (inactive); in experiment [14] it was > 100 µM (inactive); in experiment [15], > 100 µM (inactive); in [16], > 100 µM (inactive); in [17] it was > 100 µM (inactive); in experiment [18], 79.4 µM (inactive). For the same compound, the GI50 in experiment [19] is > 100 µM (inactive).

With `C=C1C(=O)O[C@H]2[C@H]1[C@H](OC(=O)/C(C)=C\C)C[C@]1(CO1)[C@@H]1[C@H](OC(C)=O)C=C(C)[C@]21O` [EUPAROTIN ACETATE], the GI50 in experiment [1] is 17.3 µM (inactive); in [2], 19.3 µM (inactive); in experiment [3] it was 6.58 µM (inactive); in [4], 13.3 µM; in experiment [5], 15 µM (inactive); in [6], 6.79 µM (inactive). The GI50 in experiment [7] was 17.9 µM (inactive); in experiment [8] it was 13.2 µM (inactive); in [9] it was 5.18 µM (inactive); in [10], 28 µM (inactive); in experiment [11] it was 3.31 µM (inactive); in experiment [12], 14.7 µM (inactive). Besides, the GI50 is 32.8 µM (inactive) in [13]; 30.8 µM (inactive) in [14]; 10.8 µM (inactive) in experiment [15]; > 59.6 µM (inactive) in experiment [16]; 67.5 µM (inactive) in experiment [17]; 14.5 µM (inactive) in experiment [18]. Besides, the GI50 in experiment [19] was 7.73 µM (inactive).

These data come from ChEMBL document CHEMBL1201862, “PubChem BioAssay data set” (2004).
